Results from patent US6166065A, “2,3-dioxabicyclo[3.3.1]nonane derivatives and antimalarial pharmaceutical compositions comprising them” (Yeda Research and Development Co., Ltd., priority 1997, dated 2000).
Like-named read-outs stand apart in the source and are kept apart here.

Experiments:
[1] = tested on: Plasmodium falciparum (NF54); assay: In vitro antimalarial activity, [3H]hypoxanthine incorporation into chloroquine-sensitive P. falciparum (NF 54); assay type: cell-based
Procedure: the protozoan Plasmodium falciparum is a causative agent of malaria. The antimalarial activity of 2,3-dioxabicyclo[3.3.1]nonanes of type A was determined by measuring the incorporation of [^3 H]hypoxanthine, by the methods of Desjardins^9 and Milhous,^10 into […] Plasmodium falciparum (NF54)^11 in the presence of varying drug concentrations. Dose-response response curves that were fit to the experimental data by means of the Marquardt algorithm^12 were solved for the drug concentration that kills 50% of parasites (IC50), and were analyzed for accuracy of fit (R^2 value, typically ≥0.99). Provisional IC50 values were obtained in a survey of seven 5-fold dilutions (in triplicate) of stock solutions of chromatographically-purified or recrystalized test compound. Assay were later expanded to include ten concentrations (in quadruplicate) of ~1.8-fold dilutions, which flank the provisional IC50.
Tables 1-3 present tabulations of a number of compounds that have been synthesized along with the IC50 (in nM).

[2] = tested on: Plasmodium berghei (N strain); assay: In vivo antimalarial activity against chloroquine-sensitive Plasmodium berghei (N strain), four-day test in mice; settings: sc, P. berghei (N strain), subcutaneous, daily dose, fourday test
Procedure: (§1) Based on the in vitro antimalarial activity of compounds of type A, the in vivo antimalarial activity of two representatives, namely of compounds 23a and 34a, were tested.
(§2) *ED50 and ED90 are given as the daily dose in mg/Kg, repeated
(§3) every 4 days. Substances were administered to mice subcutaneously and
(§4) tested by the fourday test.^14,15

[3] = tested on: Plasmodium yoelii (ssp. NS); assay: In vivo antimalarial activity against chloroquine-resistant Plasmodium yoelii (ssp. NS), four-day test in mice; settings: sc, P. yoelii (ssp. NS), subcutaneous, daily dose, fourday test
Procedure: as §1, §2, §3, §4

[4] = tested on: mouse neuroblastoma cells; settings: cited from earlier work
[5] = rats, high doses; cited from earlier work
[6] = tested on: Plasmodium berghei (N strain); design: ED90: unit not given beside the values; ED50: unit not given here; settings: against P. berghei; cited from earlier work
[7] = cited from earlier work
[8] = tested on: Plasmodium falciparum (NF54); settings: recorded under the same conditions; cited from earlier work
[9] = tested on: Plasmodium yoelii (ssp. NS); design: ED90: unit not given beside the values; ED50: unit not given here; settings: against P. yoelii; cited from earlier work
[10] = Plasmodium falciparum, NF54, Survey data (provisional; seven 5-fold dilutions in triplicate)
[11] = Plasmodium falciparum, NF54, Expansion data (ten concentrations, quadruplicate, ~1.8-fold dilutions)

CC(=O)O[C@]1(C)CC[C@@H]2C[C@H]1OO[C@@]2(C)C[S+]([O-])c1ccccc1 (stereo partly drawn) [Compound 41a, (1R,4R,5R,8R)-8-acetoxy-4,8-dimethyl-4-phenylsulfinylmethyl-2,3-dioxabicyclo[3.3.1]nonanes]
IC50 ([1]; Expansion data (ten concentrations, quadruplicate, ~1.8-fold dilutions)): 40 nM
IC50 ([1]; Expansion data (ten concentrations, quadruplicate, ~1.8-fold dilutions), listed as 41a'): 14 nM

C[C@@]1(O)[C@@H]2C[C@H](C[C@@H]1OC(=O)c1ccccc1)[C@@](C)(CS(=O)(=O)c1ccccc1)OO2 [Compound 29a, (1S,4S,5S,7S,8S)-7-benzoyloxy-4,8-dimethyl-4-phenylsulfonylmethyl-2,3-dioxabicyclo[3.3.1]nonan-8-ol]
IC50 [1, 10]: 250 nM

C[C@H]1CC[C@@H]2C[C@H]1OO[C@@]2(C)CS(=O)(=O)c1ccccc1 [Compound 22a, (1R,4R,5R,8S)-4,8-dimethyl-4-phenylsulfonylmethyl-2,3-dioxabicyclo [3.3.1]nonane]
IC50 [1, 11]: 17 nM

COc1ccc(CO[C@]2(C)CC[C@@H]3C[C@H]2OO[C@@]3(C)CS(=O)(=O)c2ccccc2)cc1 [Compound 34a, (1R,4R,5R,8R)-4,8-dimethyl-8-(p-methoxybenzyloxy)-4-phenylsulfonylmethyl-2,3-dioxabicyclo[3.3.1]nonane]
IC50 [1, 11]: 14 nM
ED50 [2]: 1.3 mg/kg
ED90 [2]: 2.3 mg/kg/day
ED50 [3]: 4.8 mg/kg
ED90 [3]: 8.3 mg/kg/day

CC(C)=CCO[C@]1(C)CC[C@@H]2C[C@H]1OO[C@@]2(C)CS(=O)(=O)c1ccccc1 [Compound 35a, (1R,4R,5R,8R)-4,8-dimethyl-8-(γ,γ-dimethylallyloxy)-4-phenylsulfonylmethyl-2,3dioxabicyclo[3.3.1]nonane]
IC50 [1, 11]: 35 nM

CCOC(=O)C(=O)O[C@]1(C)CC[C@@H]2C[C@H]1OO[C@@]2(C)CS(=O)(=O)c1ccccc1 [Compound 25a, (1R,4R,5R,8R)-8-ethoxyoxyalyloxy-4,8-dimethyl-4-phenylsulfonylmethyl-2,3-dioxabicyclo [3.3.1]nonane]
IC50 [1, 11]: 170 nM

C[C@@]1(O)CC[C@@H]2C[C@H]1OO[C@@]2(C)CS(=O)(=O)c1ccccc1 [Compound 21a, (1R,4R,5R,8R)-4,8-dimethyl-4-phenylsulfonylmethyl-2,3-dioxabicyclo [3.3.1]nonan-8-ol]
IC50 [1, 11]: 55 nM

C[C@]1(CS(=O)(=O)c2ccccc2)OO[C@@H]2C[C@H]1CC[C@@]2(C)OC(=O)Oc1ccccc1 [Compound 27b, (1R,4S, 5R,8R)-4,8-dimethyl-8-phenoxycarbonyloxy-4-phenylsulfonylmethyl-2,3-dioxabicyclo[3.3.1]nonane]
IC50 [1, 11]: 150 nM

CC(=O)O[C@]1(C)CC[C@@H]2C[C@H]1OO[C@@]2(C)CS(=O)(=O)c1ccccc1 [Compound 23a, (1R,4R,5R,8R)-8-acetoxy-4,8-dimethyl-4-phenylsulfonylmethyl-2,3-dioxabicyclo [3.3.1]nonane]
IC50 [1, 11]: 17 nM
ED50 [2]: 3.7 mg/kg
ED90 [2]: 7.3 mg/kg/day
ED50 [3]: 12.5 mg/kg
ED90 [3]: 28 mg/kg/day

C[C@@]12O[C@@H]1C[C@@H]1C[C@H]2OO[C@@]1(C)CS(=O)(=O)c1ccccc1 [Compound 39a, (1R,4R,5R,7R,8R)-7,8-epoxy-4,8-dimethyl-4-phenylsulfonylmethyl-2,3-dioxabicyclo[3.3.1]nonane]
IC50 [1, 11]: 92 nM

CC(=O)CC(=O)O[C@]1(C)CC[C@@H]2C[C@H]1OO[C@@]2(C)CS(=O)(=O)c1ccccc1 [Compound 24a, (1R,4R,5R,8R)-8-acetylacetoxy-4,8-dimethyl-4-phenylsulfonylmethyl-2,3-dioxabicyclo[3.3.1]nonane]
IC50 [1, 11]: 46 nM

C[C@@]1(OC(=O)Oc2ccccc2)CC[C@@H]2C[C@H]1OO[C@@]2(C)CS(=O)(=O)c1ccccc1 [Compound 27a, (1R,4R,5R,8R)-4,8-dimethyl-8-phenoxycarbonyloxy-4-phenylsulfonylmethyl-2,3-dioxabicyclo[3.3.1]nonane]
IC50 [1, 11]: 47 nM

CC(=O)O[C@]1(C)CC[C@@H]2C[C@H]1OO[C@]2(C)CS(=O)(=O)c1ccccc1 [Compound 23b, (1R,4S,5R,8R)-8-acetoxy-4,8-dimethyl-4-phenylsulfonylmethyl-2,3-dioxabicyclo[3.3.1]nonane]
IC50 [1, 11]: 17 nM

C[C@@]1(OC(=O)C(=O)N(Cc2ccccc2)Cc2ccccc2)CC[C@@H]2C[C@H]1OO[C@@]2(C)CS(=O)(=O)c1ccccc1 [Compound 26a, (1R,4R,5R,8R)-8-dibenzylaminooxalyloxy-4,8-dimethyl-4-phenylsulfonylmethyl-2,3-dioxabicyclo[3.3.1]nonane]
IC50 [1, 11]: 21 nM

C[C@@H]1CC[C@H]2[C@@H](C)C(O)O[C@@H]3O[C@@]4(C)CC[C@@H]1[C@]32OO4 (stereo partly shown) [dihydroarte-mesinin]
neurotoxicity [4]: neurotoxicity has been seen

C[C@]1(CS(=O)(=O)c2ccccc2)OO[C@@H]2C[C@H]1CC[C@@]2(C)OC(=O)C(=O)N(Cc1ccccc1)Cc1ccccc1 [Compound 26b, (1R,4S,5R,8R)-dibenzylaminooxalyloxy-4,8-dimethyl-4-phenylsulfonylmethyl-2,3-dioxabicyclo[3.3.1]nonane]
IC50 [1, 11]: 81 nM

CO[C@H]1O[C@@H]2O[C@@]3(C)CC[C@H]4[C@H](C)CC[C@@H]([C@H]1C)[C@@]24OO3 [artemether]
neurotoxicity [5]: neurotoxicity has been seen

CC(=O)O[C@]1(C)CC[C@@H]2C[C@H]1OO[C@]2(C)C[S+]([O-])c1ccccc1 (stereo partly drawn) [Compound 41b, (1R,4S,5R,8R)-8-acetoxy-4,8-dimethyl-4-phenylsulfinylmethyl-2,3-dioxabicyclo[3.3.1]nonanes]
IC50 [1, 11]: 71 nM

C[C@@]1(OC/C=C/c2ccccc2)CC[C@@H]2C[C@H]1OO[C@@]2(C)CS(=O)(=O)c1ccccc1 [Compound 36a, (1R,4R,5R,8R)-8-(trans-cinnamyloxy)-4,8-dimethyl-4-phenylsulfonylmethyl-2,3-dioxabicyclo[3.3.1]nonane]
IC50 [1, 11]: 32 nM

C[C@]1(CSc2ccccc2)OOC2C[C@@H]1C[C@H](OC(=O)c1ccccc1)[C@]2(C)O (stereo in doubt) [Compound 4a, (1R,4S,5S,7S,8S)-7-benzoyloxy-4,8-dimethyl-4-phenylthiomethyl-2,3-dioxabicyclo[3.3.1]nonan-8-ol]
IC50 [1, 10]: 110 nM

C[C@@H]1C(=O)C[C@H]2C[C@@H]1OO[C@@]2(C)/C=C\c1ccc(C(F)(F)F)cc1C(F)(F)F [arteflene]
ED50 [6]: 2.7
ED90 [6]: 3.9
in vitro and in vivo antimalarial screening, clinical trials [7]: gave encouraging results

C[C@H]1CC[C@@H]2C[C@H]1OO[C@]2(C)CS(=O)(=O)c1ccccc1 [Compound 22b, (1R,4S,5R,8S)-4,8-dimethyl-4-phenylsulfonylmethyl-2,3-dioxabicyclo[3.3.1]nonane]
IC50 [1, 11]: 24 nM

CC1=CC[C@@H]2C[C@H]1OO[C@@]2(C)CS(=O)(=O)c1ccccc1 [Compound 37a, (1R,4R,5R)-4,8-dimethyl-4-phenylsulfonylmethyl-2,3-dioxabicyclo[3.3.1]non-7-ene]
IC50 [1, 10]: 490 nM

CCCCS(=O)(=O)C[C@@]1(C)OO[C@H]2C[C@@H]1C[C@H](OC(=O)c1ccccc1)[C@]2(C)O [Compound 30a, (1S,4S,5S,7S,8S)-7-benzoyloxy-4-n-butylsulfonylmethyl-4,8-dimethyl-2,3-dioxabicyclo[3.3.1]nonan-8-ol]
IC50 [1, 10]: 300 nM

CCOC(=O)C(=O)O[C@]1(C)CC[C@@H]2C[C@H]1OO[C@]2(C)CS(=O)(=O)c1ccccc1 [Compound 25b, (1R,4S,5R,8R)-8-ethoxyoxalyloxy-4,8-dimethyl-4-phenylsulfonylmethyl-2,3-dioxabicyclo [3.3.1]nonane]
IC50 [1, 11]: 140 nM

C[C@]1(CS(=O)(=O)c2ccccc2)OO[C@@H]2C[C@H]1CC[C@@]2(C)O [Compound 21b, (1R,4S,5R,8R)-4,8-dimethyl-4-phenylsulfonylmethyl-2,3-dioxabicyclo[3.3.1]nonan-8-ol]
IC50 [1, 11]: 89 nM

CC(=O)CC(=O)O[C@]1(C)CC[C@@H]2C[C@H]1OO[C@]2(C)CS(=O)(=O)c1ccccc1 [Compound 24b, (1R,4S,5R,8R)-8-acetylacetoxy-4,8-dimethyl-4-phenylsulfonylmethyl-2,3-dioxabicyclo [3.3.1]nonane]
IC50 [1, 11]: 73 nM

C[C@@H]1CC[C@H]2[C@@H](C)C(=O)O[C@@H]3O[C@@]4(C)CC[C@@H]1[C@]32OO4 [artemisinin]
IC50 [8]: 11 nM
ED50 [6]: 0.95
ED90 [6]: 2.5
ED50 [9]: 5.8
ED90 [9]: 10.0
